The nature of data set [1]: Gelation test (gelator ability in solvents, vial inversion). It is filed as physicochemical. Further details: key: I = insoluble; P = precipitate; S = solution; VS = viscous solution; G = gel; PG = partial gel. The note with it: concentration in wt % in parentheses in each cell. On the procedure: A number of characterization methods are useful for detecting and characterizing self-assembled nanostructures from alkylated derivatives of aromatic acids. The simplest test is to observe any changes in viscosity (rheology) of the liquid containing the alkylated compound relative to the neat liquid alone. […] The increase in viscosity and gelation of liquids is known to occur due to the presence and entanglement of long, 1D aggregates.
To vials with a screw cap lids (4 mL capacity) were added alkylated derivatives of aromatic acids as solids (1-100 mg) and a solvent (1 mL). The mixture was then sonicated and heated until clear solutions were obtained. After cooling and standing at room temperature for at least 30 min., the sample was inverted and inspected visually.

The nature of data set [2]: Self-assembled nanostructures observed by SEM and STEM. It is filed as physicochemical. The source says: Microscopy techniques such as optical light microscopy, scanning electron microscopy (SEM), transmission electron microscopy (TEM), atomic force microscopy (AFM)/scanning probe microscopy (SPM), and fluorescence microscopy are useful for determining the size and morphology of the nano (and micro) structures formed from alkylated derivatives of aromatic acids. Samples are typically prepared by depositing a drop of the liquid composition containing the nanostructures onto an appropriate sample substrate such as a carbon film coated copper mesh TEM grid, removing the excess liquid by blotting with filter paper, and then allowing to dry prior to analysis. Dynamic light scattering is also useful for detecting the presence of particles between 1 nm and 1 μm in size, measuring the size/size distribution of the dispersed particles. Rheometry is useful for determining the viscoelastic properties and thermal phase transitions for compositions of the self-assembled nanostructures. X-ray diffraction is useful for characterizing the structure of the self-assembled nanostructures size as phase identification, crystallinity, phase transitions, crystal structure refinement and determination, and size and strain broadening of crystallite nanostructures. NMR spectroscopy is useful in detecting the formation intermolecular noncovalent interactions stabilizing the nanostructures, their diffusion properties, as well as phase transitions. UV-Vis can be used for detecting the presence of nanostructures as well as confirming the presence of intermolecular pi-stacking interactions. FT-IR spectroscopy is also useful for the detection of hydrogen-bonding interactions involved in stabilizing the self-assembled nanostructures. Differential Scanning calorimetry (DSC) is another useful characterization technique, which enables the identification of thermal phase transitions within the compositions containing the nanostructures.
This example describes the self-assembled nanostructures formed from alkylated derivatives of aromatic acids deposited onto substrates observed by Scanning Electron and Scanning Transmission Electron Microscopy (SEM and STEM, respectively).
Microscopy samples are prepared by mixing the alkylated derivatives of aromatic acids as solids with a solvent, subjecting the mixture to bath sonication, and then heating to form a clear solution. The solutions are then cooled to room temperature and allowed to age for desired periods of time prior to microscopy sample preparation. After cooling, the samples may be clear solutions, turbid colloidal solutions, or more opaque dispersions. Microscopy samples are prepared for analysis by depositing a drop on thin carbon film coated copper mesh grids, allowing the drop to remain on the film for a desired period of time, followed by wicking away the excess solvent with filter paper and allowing to dry. Table 5 summarizes examples of compositions containing nanostructures of alkylated derivatives of selected aromatic acids for this invention. FIGS. 1 to 7 show Scanning Electron Microscopy and Scanning Transmission Electron Microscopy images of the nanostructures formed from alkylated derivatives of selected aromatic acids.

The mark [3] stands for this setting: solvent H2O, sonicated, heated, cooled, room temperature at least 30 min, vial inverted.
Setting [4] is: Toluene, 0.1 mg/mL, bundles of fibrils.
Where [5] appears, read: Xylenes:THF (1:1), 1.3 mg/mL, fibrils.

“Also recorded” adds a separate entry of the source. Where only a bound is given, the exact number is not on record here.

Take `CCCCCCCCCCCCC(CCCCCCCCCC)C(=O)Nc1cc(C(=O)O)cc(C(=O)O)c1` (stereo not shown) [compound 53, 5-(2-decyltetradecanamido)isophthalic acid]: the “gelator ability (state of sample)” value is “G (0.4)” in data set [1] (solvent Benzene); “G (0.4)” in data set [1] (solvent CHCl3); “G (1.0)” in data set [1] (solvent Cyclohexane); “G (0.5)” in data set [1] (solvent Decalin); “G (0.6)” in data set [1] (solvent Dimethoxyethane); “G (1)” in data set [1] (solvent Dodecane). The “gelator ability (state of sample)” value in data set [1] (solvent Ethylene Glycol) is recorded as “PG (2.0)”; in data set [1] (setting [3]), “I (0.1)”; in data set [1] (solvent Hexadecane) it was “G (1)”; in data set [1] (solvent Hexanes), “P (0.2),”; in data set [1] (solvent MeOH) it was “S (0.1)”; in data set [1] (solvent Toluene) it was “G (1.0)”. The “gelator ability (state of sample)” value in data set [1] (solvent Xylenes) is given as “G (1)”. In addition, the “Description (nanostructure)” value in data set [2] (Toluene, 0.1 mg/mL) is recorded as “Bundles of fibrils”. Also, the L is on record as above 1000 nm in data set [2] (setting [4]) and above 1000 nm in data set [2] (Toluene, 0.1 mg/mL, fibrils). Further, the W in data set [2] (setting [4]) was 20-100 nm; in data set [2] (Toluene, 0.1 mg/mL, fibrils), 5-10 nm.
As to `CCCCCCCCCCCCC(CCCCCCCCCC)C(=O)Nc1cc(C(N)=O)cc(C(N)=O)c1` (stereo not shown) [compound 74, 5-(2-decyltetradecanamido)isophthalamide], the “gelator ability (state of sample)” value is on record as “P (0.1)” in data set [1] (solvent CHCl3); “I (0.1)” in data set [1] (solvent Cyclohexane); “I (2.0)” in data set [1] (solvent Decalin); “S (0.1)” in data set [1] (solvent Dimethoxyethane); “P (2.5)” in data set [1] (solvent Ethylene Glycol); “I (0.1)” in data set [1] (setting [3]). Moreover, the “gelator ability (state of sample)” value is on record as “I (0.1)” in data set [1] (solvent Hexanes), “S (3.0)” in data set [1] (solvent MeOH), “I (0.5)” in data set [1] (solvent Toluene) and “I (2.0)” in data set [1] (solvent Xylenes). The “Description (nanostructure)” value in data set [2] (Chloroform, 0.1 mg/mL) was “Fibrils”; in data set [2] (Chloroform, 1.0 mg/mL) it was “Fibers”; in data set [2] (EtOH:H2O, 1.0 mg/mL), “Fibers; also recorded: Fibrils”. Besides, the L is recorded as 50-1000 nm in data set [2] (Chloroform, 0.1 mg/mL, fibrils); 300-800 nm in data set [2] (Chloroform, 1.0 mg/mL, fibers); above 5000 nm in data set [2] (EtOH:H2O, 1.0 mg/mL, fibers); 10-100 nm in data set [2] (EtOH:H2O, 1.0 mg/mL, fibrils). The W in data set [2] (Chloroform, 0.1 mg/mL, fibrils) is given as 5-10 nm; in data set [2] (Chloroform, 1.0 mg/mL, fibers), 25-200 nm; in data set [2] (EtOH:H2O, 1.0 mg/mL, fibers), 50-250 nm; in data set [2] (EtOH:H2O, 1.0 mg/mL, fibrils) it was 5-10 nm.
On to `CCCCCCCCCCCCCCCCCCNC(=O)Nc1cc(C(=O)O)cc(C(=O)O)c1` [compound 56], for which the “gelator ability (state of sample)” value in data set [1] (solvent CHCl3) is “I (0.1)”; in data set [1] (solvent Decalin), “G (2.3)”; in data set [1] (solvent Dimethoxyethane), “S (1.0)”; in data set [1] (solvent Ethylene Glycol) it was “P (0.5)”; in data set [1] (setting [3]) it was “I (0.1)”; in data set [1] (solvent Hexadecane) it was “I (0.1)”. Besides, the figures for the “gelator ability (state of sample)” value in data set [1] (solvent MeOH), in data set [1] (solvent Toluene) and in data set [1] (solvent Xylenes) were “G (2.0)”, “I (0.1)” and “G (2.0)”, respectively. For the same compound, in data set [2] (Chloroform, 0.1 mg/mL), the “Description (nanostructure)” value was “Fibrils”. The L in data set [2] (Chloroform, 0.1 mg/mL, fibrils) is reported as above 1000 nm. Also, in data set [2] (Chloroform, 0.1 mg/mL, fibrils), the W is reported as 5-10 nm.
On to `CCCC(=O)Nc1cc(C(=O)O)cc(C(=O)O)c1` [compound 45, 5-(butyramido)isophthalic acid], for which the “gelator ability (state of sample)” value in data set [1] (solvent CHCl3) is recorded as “I (0.1)”; in data set [1] (solvent Ethylene Glycol), “S (0.1)”; in data set [1] (setting [3]), “I (0.1)”; in data set [1] (solvent Hexadecane) it was “I (1.1)”; in data set [1] (solvent Hexanes) it was “I (0.1)”; in data set [1] (solvent MeOH) it was “S”. Moreover, the “gelator ability (state of sample)” value in data set [1] (solvent Toluene) is reported as “I (1.3)”. The L in data set [2] (setting [5]) is 50-1000 nm; in data set [2] (Xylenes:THF (1:1), 1.3 mg/mL, sheets), 2000-10000 nm. Moreover, the W in data set [2] (setting [5]) is on record as 3-6 nm.
